Source: patent US20190337921A1, “TETRASUBSTITUTED ALKENE COMPOUNDS AND THEIR USE” (Eisai R&D Management Co., Ltd., priority 2016, published 2019)

What was measured:
[1] = tested on: MCF7-WT cells (WT ER, MCF7.6); assay: In vitro proliferation (viability) assay, CellTiter-Glo, MCF7-WT; format: cell-based; conditions: Homo sapiens, CTG on day 6 compared to day 0, read-out: WT ER CTGlo MCF7.6 GI50 Mean
Method: (§1) MCF7 BUS cells (Coser, et al., (2003) PNAS 100(24): 13994-13999) were maintained in Dulbecco's Modified Eagle Medium supplemented with 10%/o FBS, 4 mM L-glutamine and 1× non-essential amino acids. Lenti-X 293T cells (Clontech, Cat #632180) were routinely cultured in Dulbecco's Modified Eagle Medium supplemented with 10% FBS.
(§2) The QuikChange II XL Site-Directed Mutagenesis Kit (Agilent Technologies, Cat #200523) was used to generate Y537S, Y537C, Y537N and D538G mutations within the ERα exon 8. […]
(§3) MCF7-WT and —Y537S cells were seeded at 1500 cells/well in black-walled 96-well plates (assay plates. Costar, Cat #3904). In parallel, cells were also seeded in a separate 96-well plate (8 wells/cell line, control plate) for which a CTG (CellTiter-Glo® Luminescent Viability Assay, Promega, Cat #G7572) was measured the following day (day 0 reading). The day 0 reading was used for the GI50 calculation at the termination of the experiment. […] CTG was measured and compared to day 0 readings from control plate to assess GI50.

[2] = tested on: MCF7-Y537S cells (Y537S ER, MCF7.7); assay: In vitro proliferation (viability) assay, CellTiter-Glo, MCF7-Y537S; format: cell-based; conditions: Homo sapiens, CTG on day 6 compared to day 0, read-out: Y537S ER CTGlo MCF7.7 GI50 Mean
Method: as §1, §2, §3

[3] = tested on: MCF7 cells with ectopic expression of ERα Y537S/N/C, D538G; assay: In vitro proliferation of wild-type and mutant ER-bearing MCF7 lines with clinical therapies (FIG. 1); format: cell-based, human
Method: 48 h post-transfection, virus containing media was filtered and added to MCF7 cells in the presence of 8 μg/ml polybrene overnight. Two days following infection, cells were placed under selection with 10 μg/ml blasticidin for 2 weeks for stable expression.
In parallel, cells were also seeded in a separate 96-well plate (8 wells/cell line, control plate) for which a CTG (CellTiter-Glo® Luminescent Viability Assay, Promega, Cat #G7572) was measured the following day (day 0 reading). The day 0 reading was used for the GI50 calculation at the termination of the experiment. The day following seeding, compounds were added to assay plates. Briefly, a 1:4 serial dilution was prepared in DMSO at 200× final concentration for a total of 10 concentrations (9 dilutions containing compound and one is DMSO only). Serially diluted compounds were pipetted into medium to prepare a compound-medium mix at 10× final concentration. 10 μl of compound-medium mix was added to MCF7-WT and —Y537S cells at 3 wells/concentration (triplicate for each concentration). On day 3, media-compound was removed and replaced with fresh media/compound as described above. On day 6. CTG was measured and compared to day 0 readings from control plate to assess GI50.

| SMILES | GI50 [1] [nM] | GI50 [2] [nM] | Resistance of ERα mutant-bearing MCF7 lines relative to control lines [3] |
| --- | --- | --- | --- |
| CC/C(=C(/c1ccc(OCCNC/C=C/C(=O)N(C)C)cc1)c1ccc2[nH]ccc2c1)c1ccccc1 [Compound 102, (E)-4-(2-(4-((E)-1-(1H-indol-5-yl)-2-phenylbut-1-enyl)phenoxy)ethylamino)-N,N-dimethylbut-2-enamide] | 1.75 | 27.5 | – |
| C[C@]12CC[C@@H]3c4ccc(O)cc4C[C@@H](CCCCCCCCC[S+]([O-])CCCC(F)(F)C(F)(F)F)[C@H]3[C@@H]1CC[C@@H]2O (some centres unmarked) [fulvestrant] | – | – | phenotypic resistance |
| O=C(c1ccc(OCCN2CCCCC2)cc1)c1c(-c2ccc(O)cc2)sc2cc(O)ccc12 [raloxifene] | – | – | phenotypic resistance |
| CC/C(=C(\c1ccccc1)c1ccc(OCCN(C)C)cc1)c1ccccc1 [tamoxifen] | – | – | phenotypic resistance |
